pIC50: −log10 of the molar value.
Legend:
[1] = target: T1, cholinesterase (Rattus norvegicus, UniProt P37136); assay: Cholinesterase inhibitory activity assayed with (acetyl-[3H])-acetylcholine, S1 fraction of cerebral cortex homogenate; assay type: biochemical; details: S1 fraction of male Wistar rat cerebral cortex homogenate; (acetyl-[3H])-acetylcholine substrate; 30 minutes incubation; read-out: Acetylcholinesterase inhibitory activity I C50
T1 construct: using the S1 fraction of a homogenate of male Wistar rat cerebral cortex as the cholinesterase source; from tissue; host or cells: male Wistar rat cerebral cortex, S1 fraction of homogenate
Description: The cholinesterase inhibitory activity of the compound of this invention was assayed with (acetyl-[^3H])-acetylcholine. More specifically, using the S1 fraction of a homogenate of male Wistar rat cerebral cortex as the cholinesterase source, (acetyl[^3H])-acetylcholine as the substrate and the compound of this invention as the test sample were added. The mixture was incubated for 30 minutes, then the reaction was terminated, to which was added a toluene-based scintillant, then the mixture was shaken. The reaction product [^3H]-acetic acid was transferred to the toluene layer, which was subjected to determination of cholinesterase activity by counting with a liquid scintillation counter.

[2] = target: T2, serotonin (5-HT) uptake (Rattus norvegicus, UniProt P31652); assay: Monoamine uptake into crude synaptosomal preparations (P2) of cerebral cortex and hippocampus, [3H]-5-HT; assay type: biochemical, Rats
T2 construct: Crude synaptosomal preparations (P2) were isolated after differential centrifugation; from tissue; host or cells: rat cerebral cortex and hippocampus, crude synaptosomal preparation (P2)
Description: Effects of the compound of this invention on monoamine uptake were investigated using [^3H]-norepinephirine(NE) and [^3H]-serotonin (5-HT). Rats were sacrificed by decapitation. The cerebral cortex and hippocampus were removed and homogenized in 10-15 volumes (W/V) of an ice-cold medium containing 0.32 M sucrose. Crude synaptosomal preparations (P2) were isolated after differential centrifugation at 1000 x g for 10 min and 20,000 x g for 30 min at 4°C. […] Synaptosomal membrane suspension (900 µl) was preincubated with the test compound dissolved in DMSO solution at 37°C for 5 min. […] Five minutes later, the reaction was stopped by the addition of 4 ml of ice-cold KRB and the reaction mixture was filtered through Whatman GF/B. Filters were washed twice with 4 ml of KRB and the radioactivity bound was counted with liquid scintillant. […] All compounds were tested at 10^-8, 10^-7, 10^-6 and 10^-5M.

T2 sequence (P31652 whole entry): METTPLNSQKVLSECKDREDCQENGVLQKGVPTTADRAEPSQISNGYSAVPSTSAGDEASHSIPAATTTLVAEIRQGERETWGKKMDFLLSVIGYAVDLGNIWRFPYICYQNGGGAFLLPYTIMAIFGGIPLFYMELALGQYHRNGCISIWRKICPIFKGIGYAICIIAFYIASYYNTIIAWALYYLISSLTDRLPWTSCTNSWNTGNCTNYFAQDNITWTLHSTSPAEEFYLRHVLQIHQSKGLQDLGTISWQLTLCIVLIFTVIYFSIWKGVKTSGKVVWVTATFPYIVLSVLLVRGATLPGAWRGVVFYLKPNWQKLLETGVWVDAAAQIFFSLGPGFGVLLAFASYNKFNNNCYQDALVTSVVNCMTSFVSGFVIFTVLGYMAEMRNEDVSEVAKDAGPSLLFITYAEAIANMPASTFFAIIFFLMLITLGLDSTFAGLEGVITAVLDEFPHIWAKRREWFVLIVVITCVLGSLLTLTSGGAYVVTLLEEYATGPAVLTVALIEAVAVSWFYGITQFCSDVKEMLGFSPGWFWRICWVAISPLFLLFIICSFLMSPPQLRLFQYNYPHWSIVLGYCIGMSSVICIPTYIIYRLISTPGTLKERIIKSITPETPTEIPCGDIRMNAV
T1 sequence (P37136 32-614): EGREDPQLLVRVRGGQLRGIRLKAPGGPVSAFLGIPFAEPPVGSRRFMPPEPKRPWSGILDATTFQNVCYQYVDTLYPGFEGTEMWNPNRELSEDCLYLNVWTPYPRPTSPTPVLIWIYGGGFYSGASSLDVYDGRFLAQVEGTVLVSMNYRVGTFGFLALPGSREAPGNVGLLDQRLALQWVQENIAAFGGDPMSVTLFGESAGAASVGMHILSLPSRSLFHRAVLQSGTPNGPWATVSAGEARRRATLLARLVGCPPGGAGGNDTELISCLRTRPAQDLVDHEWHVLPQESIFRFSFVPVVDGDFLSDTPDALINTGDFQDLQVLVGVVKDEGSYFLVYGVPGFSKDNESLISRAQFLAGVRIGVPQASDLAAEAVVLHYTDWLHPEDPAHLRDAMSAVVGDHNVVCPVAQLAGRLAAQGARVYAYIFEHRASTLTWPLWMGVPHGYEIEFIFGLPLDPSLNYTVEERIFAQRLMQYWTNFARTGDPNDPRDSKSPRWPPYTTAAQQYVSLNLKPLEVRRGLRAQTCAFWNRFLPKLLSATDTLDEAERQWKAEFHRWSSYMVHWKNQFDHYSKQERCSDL

O=C(CCN1CCN(Cc2ccccc2)CC1)c1ccc2c(c1)CNCCC2 [13-3]
pIC50 [1]: 7.10

O=C(CCN1CCN(Cc2ccccc2)CC1)c1ccc2c(c1)CCN2Cc1ccccc1 [14-1]
pIC50 [2]: 6.38

O=C(CCN1CCN(Cc2ccccc2)CC1)c1ccc2c(c1)CN(Cc1ccccc1)CCC2 [14-2]
pIC50 [1]: 6.27

O=C(CCN1CCN(Cc2ccccc2)CC1)c1ccc2c(c1)CCN(Cc1cccc(Cl)c1)CC2 [14-4]
pIC50 [1]: 6.83

CCN1CCc2ccc(C(=O)CCN3CCN(Cc4ccccc4)CC3)cc2CC1 [14-5]
pIC50 [1]: 7.73

O=C(CCN1CCN(Cc2ccccc2Cl)CC1)c1ccc2c(c1)CCN(Cc1ccccc1)CC2 [14-6]
pIC50 [2]: 7.46 | pIC50 [1]: 6.95

O=C(CCN1CCN(Cc2cccc(Cl)c2)CC1)c1ccc2c(c1)CCN(Cc1ccccc1)CC2 [14-7]
pIC50 [2]: 7.38

O=C(CCN1CCN(Cc2ccccc2)CC1)c1ccc2c(c1)CCN(Cc1ccc(Cl)cc1)CC2 [14-10]
pIC50 [1]: 6.78

Cc1ccccc1CN1CCc2ccc(C(=O)CCN3CCN(Cc4ccccc4)CC3)cc2CC1 [14-14]
pIC50 [1]: 7.20

N#Cc1ccc(CN2CCc3ccc(C(=O)CCN4CCN(Cc5ccccc5)CC4)cc3CC2)cc1 [14-19]
pIC50 [1]: 7.47

O=C(CCN1CCN(Cc2ccccc2)CC1)c1ccc2c(c1)CCN(Cc1cccc(F)c1)CC2 [14-20]
pIC50 [1]: 7.32

COc1ccccc1CN1CCc2ccc(C(=O)CCN3CCN(Cc4ccccc4)CC3)cc2CC1 [14-21]
pIC50 [1]: 7.65

COc1ccc(CN2CCc3ccc(C(=O)CCN4CCN(Cc5ccccc5)CC4)cc3CC2)cc1OC [14-22]
pIC50 [1]: 7.67

Cc1ccc(CN2CCc3ccc(C(=O)CCN4CCN(Cc5ccccc5)CC4)cc3CC2)cc1 [14-23]
pIC50 [2]: 7.23 | pIC50 [1]: 7.18

Cc1cccc(CN2CCc3ccc(C(=O)CCN4CCN(Cc5ccccc5)CC4)cc3CC2)c1 [14-25]
pIC50 [1]: 7.16

COc1cccc(CN2CCc3ccc(C(=O)CCN4CCN(Cc5ccccc5)CC4)cc3CC2)c1 [14-27]
pIC50 [1]: 6.88

COc1ccc(CN2CCc3ccc(C(=O)CCN4CCN(Cc5ccccc5)CC4)cc3CC2)cc1 [14-29]
pIC50 [2]: 7.26 | pIC50 [1]: 7.59

O=C(CCN1CCN(Cc2ccccc2)CC1)c1ccc2c(c1)CCN(CCc1ccccc1)CC2 [14-31]
pIC50 [2]: 7.52 | pIC50 [1]: 7.48

CC(C)CN1CCc2ccc(C(=O)CCN3CCN(Cc4ccccc4)CC3)cc2CC1 [14-33]
pIC50 [2]: 7.25 | pIC50 [1]: 7.47

COc1ccc(CCN2CCc3ccc(C(=O)CCN4CCN(Cc5ccccc5)CC4)cc3CC2)cc1OC [14-36]
pIC50 [2]: 7.88 | pIC50 [1]: 7.77

O=C(CCN1CCN(Cc2ccccc2)CC1)c1ccc2c(c1)CCN(C(=O)c1ccccc1)CC2 [17-3]
pIC50 [1]: 7.08

CC(=O)N1CCc2cc(C(=O)CCN3CCN(Cc4ccccc4)CC3)ccc21 [compound 16]
pIC50 [1]: 7.60

CN1CCc2ccc(C(=O)CCN3CCN(Cc4ccccc4)CC3)cc2CC1 [compound 18]
pIC50 [1]: 7.47
